In patent publication US8242145B2, “Cyclic diaryl ether compounds as antagonists of prostaglandin D2 receptors” (Panmira Pharmaceuticals, LLC, priority 2008, dated 2012):

How the values were obtained:
human DP2 receptor = molecular target: T1, human DP2 receptor (Homo sapiens, UniProt Q9Y5Y4); assay: DP2/CRTH2 radioligand binding assay using [3H]PGD2; conditions: hDP2 (CRTH2) binding assay
T1 construct: expressed in transfected cells
T1 sequence (Q9Y5Y4 1-395): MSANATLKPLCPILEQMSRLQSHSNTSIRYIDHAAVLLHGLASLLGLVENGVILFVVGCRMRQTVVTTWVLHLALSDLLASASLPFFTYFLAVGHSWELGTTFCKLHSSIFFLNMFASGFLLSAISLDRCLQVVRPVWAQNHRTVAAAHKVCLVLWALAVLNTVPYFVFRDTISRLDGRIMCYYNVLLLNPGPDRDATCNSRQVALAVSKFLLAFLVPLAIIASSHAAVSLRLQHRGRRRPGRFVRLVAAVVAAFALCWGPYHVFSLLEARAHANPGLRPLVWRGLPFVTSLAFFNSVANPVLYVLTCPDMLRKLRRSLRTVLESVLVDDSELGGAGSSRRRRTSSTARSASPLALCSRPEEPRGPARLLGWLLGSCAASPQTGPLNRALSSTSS
How it was run: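 HEK293 membranes with stable recombinant human DP2, incubated with 1 nM [3H]PGD2 and compound 60 min at room temperature in pH 7.4 HEPES/MnCl2/EDTA buffer, with or without 0.2% human serum albumin.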

[1] = molecular target: T2, recombinant human CRTH2 receptor (Homo sapiens, UniProt Q9Y5Y4); assay: GTPγS binding assay; type: biochemical; conditions: +HSA; read-out: hDP2 GTPγS μM (+HSA)
T2 construct: expressed in transfected cells
T2 sequence (Q9Y5Y4 1-395): T1 sequence (Q9Y5Y4 1-395)
How it was run: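 Membranes from CHO cells stably expressing recombinant receptor (~12.5 μg/well), incubated 60 min at 30° C with 0.05 nM [^35S]-GTPγS, 80 nM PGD2, 5 μM GDP in pH 7.4 Hepes buffer with 0.2% human serum albumin. Filter-bound radioactivity counted; specific binding = total minus binding without PGD2; IC50 from titration curves.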

human DP1 receptor = molecular target: T3, human DP1 receptor (Homo sapiens, UniProt Q13258); assay: DP1 radioligand binding assay using [3H]BWA868C; conditions: hDP1 binding
T3 construct: tissue Biological Specialty Corporation; host or cells: human platelets, membranes
T3 sequence (Q13258 1-359): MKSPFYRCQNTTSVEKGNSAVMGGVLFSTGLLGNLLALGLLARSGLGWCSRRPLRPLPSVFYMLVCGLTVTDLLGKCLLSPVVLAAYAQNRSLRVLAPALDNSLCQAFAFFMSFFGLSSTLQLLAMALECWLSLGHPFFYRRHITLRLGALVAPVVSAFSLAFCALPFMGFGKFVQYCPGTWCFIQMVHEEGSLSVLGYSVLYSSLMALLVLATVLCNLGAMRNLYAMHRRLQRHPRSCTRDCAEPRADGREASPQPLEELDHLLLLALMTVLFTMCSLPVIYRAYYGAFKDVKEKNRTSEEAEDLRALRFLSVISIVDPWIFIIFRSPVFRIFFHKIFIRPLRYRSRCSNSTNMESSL
How it was run: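 Human platelet membranes (20 μg protein/well) incubated 60 min at room temperature with 2 nM [3H]BWA868C in 50 mM Hepes, 10 mM MnCl2, 1 mM EDTA, ±0.2% human serum albumin, pH 7.4. Bound label measured after filtration; nonspecific binding defined with 10 μM BW A868C. IC50 from titration curves.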

Compound | IC50 (human DP2 receptor) [nM] | IC50 [1] [µM] | IC50 (human DP1 receptor) [nM]
C[C@@H]1[C@H](c2cc(C(F)(F)F)cc(C(F)(F)F)c2)OC(=O)N1Cc1cc(Br)ccc1Oc1cccc(CC(=O)O)c1 [Compound 1-52] | < 300 | > 1 | > 1000
C[C@@H]1[C@H](c2ccccc2)OC(=O)N1Cc1cc(Br)ccc1Oc1ccc(Cl)c(CC(=O)O)c1 [Compound 1-53, {5-[4-Bromo-2-((4R,5S)-4-methyl-2-oxo-5-phenyl-oxazolidin-3-ylmethyl)-phenoxy]-2-chloro-phenyl}-acetic acid] | < 300 | > 1 | > 1000
C[C@@H]1[C@H](c2ccccc2)OC(=O)N1Cc1cc(Br)ccc1Oc1ccc(C(F)(F)F)c(CC(=O)O)c1 [Compound 1-54, {5-[4-Bromo-2-((4R,5S)-4-methyl-2-oxo-5-phenyl-oxazolidin-3-ylmethyl)-phenoxy]-2-trifluoromethyl-phenyl}-acetic acid] | 300 to 1000 | > 1 | > 1000
C[C@@H]1[C@H](c2ccccc2)OC(=O)N1Cc1cc(Br)ccc1Oc1cc(F)cc(CC(=O)O)c1 [Compound 1-55, {3-[4-Bromo-2-((4R,5S)-4-methyl-2-oxo-5-phenyl-oxazolidin-3-ylmethyl)-phenoxy]-5-fluoro-phenyl}-acetic acid] | < 300 | < 0.3 | > 1000
C[C@@H]1[C@H](c2ccccc2)OC(=O)N1Cc1cc(Br)ccc1Oc1cc(Cl)cc(CC(=O)O)c1 [Compound 1-56, {3-[4-Bromo-2-((4R,5S)-4-methyl-2-oxo-5-phenyl-oxazolidin-3-ylmethyl)-phenoxy]-5-chloro-phenyl}-acetic acid] | < 300 | < 0.3 | > 1000
C[C@@H]1[C@H](c2ccccc2)OC(=O)N1Cc1cc(Br)ccc1Oc1cc(CC(=O)O)cc(C(F)(F)F)c1 [Compound 1-57, {3-[4-Bromo-2-((4R,5S)-4-methyl-2-oxo-5-phenyl-oxazolidin-3-ylmethyl)-phenoxy]-5-trifluoromethyl-phenyl}-acetic acid] | < 300 | < 0.3 | > 1000
C[C@@H]1[C@H](c2ccccc2)OC(=O)N1Cc1cc(Br)ccc1Oc1cc(CC(=O)O)ccc1Cl [Compound 1-58, {3-[4-Bromo-2-((4R,5S)-4-methyl-2-oxo-5-phenyl-oxazolidin-3-ylmethyl)-phenoxy]-4-chloro-phenyl}-acetic acid] | < 300 | 0.3 to 1 | > 1000
COc1ccc(CC(=O)O)cc1Oc1ccc(Cl)cc1CN1C(=O)O[C@@H](c2ccccc2)[C@H]1C [Compound 1-59, {3-[4-Chloro-2-((4R,5S)-4-methyl-2-oxo-5-phenyl-oxazolidin-3-ylmethyl)-phenoxy]-4-methoxy-phenyl}-acetic acid] | < 300 | < 0.3 | > 1000
COc1ccc(CC(=O)O)cc1Oc1ccc(Br)cc1CN1C(=O)O[C@@H](c2ccccc2)[C@H]1C [Compound 1-60, {3-[4-Bromo-2-((4R,5S)-4-methyl-2-oxo-5-phenyl-oxazolidin-3-ylmethyl)-phenoxy]-4-methoxy-phenyl}-acetic acid] | < 300 | < 0.3 | > 1000
COc1ccc(CC(=O)O)cc1Oc1ccc(C(F)(F)F)cc1CN1C(=O)O[C@@H](c2ccccc2)[C@H]1C [Compound 1-61, {4-Methoxy-3-[2-((4R,5S)-4-methyl-2-oxo-5-phenyl-oxazolidin-3-ylmethyl)-4-trifluoromethyl-phenoxy]-phenyl}-acetic acid] | < 300 | 0.3 to 1 | > 1000
COc1ccc(CC(=O)O)cc1Oc1ccc(Br)cc1CN1C(=O)O[C@@H](c2ccc(Cl)cc2)[C@H]1C [Compound 1-62] | < 300 | 0.3 to 1 | > 1000
COc1ccc(CC(=O)O)cc1Oc1ccc(Br)cc1CN1C(=O)O[C@@H](c2cc(F)cc(F)c2)[C@H]1C [Compound 1-63, (3-{4-Bromo-2-[(4R,5S)-5-(3,5-difluoro-phenyl)-4-methyl-2-oxo-oxazolidin-3-ylmethyl]-phenoxy}-4-methoxy-phenyl)-acetic acid] | < 300 | < 0.3 | > 1000
COc1ccc(CC(=O)O)cc1Oc1ccc(Br)cc1CN1C(=O)O[C@@H](c2cc(C(F)(F)F)cc(C(F)(F)F)c2)[C@H]1C [Compound 1-64, (3-{2-[(4R,5S)-5-(3,5-Bis-trifluoromethyl-phenyl)-4-methyl-2-oxo-oxazolidin-3-ylmethyl]-4-bromo-phenoxy}-4-methoxy-phenyl)-acetic acid] | 300 to 1000 | > 1 | > 1000
CCNC(=O)c1ccc(Oc2cc(CC(=O)O)ccc2OC)c(CN2C(=O)O[C@@H](c3ccccc3)[C@H]2C)c1 [Compound 1-65, {3-[4-Ethylcarbamoyl-2-((4R,5S)-4-methyl-2-oxo-5-phenyl-oxazolidin-3-ylmethyl)-phenoxy]-4-methoxy-phenyl}-acetic acid] | < 300 | 0.3 to 1 | > 1000
COc1ccc(CC(=O)O)cc1Oc1ccc(-c2cnn(C)c2)cc1CN1C(=O)O[C@@H](c2ccccc2)[C@H]1C [Compound 1-66, {4-Methoxy-3-[2-((4R,5S)-4-methyl-2-oxo-5-phenyl-oxazolidin-3-ylmethyl)-4-(1-methyl-1H-pyrazol-4-yl)-phenoxy]-phenyl}-acetic acid] | < 300 | < 0.3 | > 1000
C[C@@H]1[C@H](c2ccccc2)OC(=O)N1Cc1cc(C(F)(F)F)ccc1Oc1cc(CC(=O)O)ccc1OCc1ccccc1 [Compound 1-67, {4-Benzyloxy-3-[2-((4R,5S)-4-methyl-2-oxo-5-phenyl-oxazolidin-3-ylmethyl)-4-trifluoromethyl-phenoxy]-phenyl}-acetic acid] | < 300 | 0.3 to 1 | > 1000
Cc1nc(C)c(-c2ccc(Oc3cccc(CC(=O)O)c3)c(CN3C(=O)O[C@H](c4ccccc4)[C@@H]3C)c2)s1 [Compound 1-75, {3-[4-(2,4-Dimethyl-thiazol-5-yl)-2-((4S,5R)-4-methyl-2-oxo-5-phenyl-oxazolidin-3-ylmethyl)-phenoxy]-phenyl}-acetic acid] | < 300 | 0.3 to 1 | < 300
Cc1noc(C)c1-c1ccc(Oc2cccc(CC(=O)O)c2)c(CN2C(=O)O[C@H](c3ccccc3)[C@@H]2C)c1 [Compound 1-76, {3-[4-(3,5-Dimethyl-isoxazol-4-yl)-2-((4S,5R)-4-methyl-2-oxo-5-phenyl-oxazolidin-3-ylmethyl)-phenoxy]-phenyl}-acetic acid] | < 300 | 0.3 to 1 | < 300
C[C@H]1[C@@H](c2ccccc2)OC(=O)N1Cc1cc(C(F)(F)F)ccc1Oc1cccc(CC(=O)O)c1 [Compound 1-77, {3-[2-((4S,5R)-4-Methyl-2-oxo-5-phenyl-oxazolidin-3-ylmethyl)-4-trifluoromethyl-phenoxy]-phenyl}-acetic acid] | < 300 | 0.3 to 1 | < 300
C[C@@H]1[C@H](c2ccccc2)OC(=O)N1Cc1cc(C(F)(F)F)ccc1Oc1cc(CC(=O)O)ccc1O [Compound 1-78, {4-Hydroxy-3-[2-((4R,5S)-4-methyl-2-oxo-5-phenyl-oxazolidin-3-ylmethyl)-4-trifluoromethyl-phenoxy]-phenyl}-acetic acid] | < 300 | < 0.3 | > 1000
